Results on ten compounds are retold here after US3974140A, “Ureidoacetamido-penicillins” (Bayer Aktiengesellschaft, priority 1970, dated 1976).

What all share (test): MIC, liquid medium test tube series dilution test
In one assay the test system is Klebsiella 63. Format: cell-based. To be noted: Klebsiella 63, 24 hours, 37°C. Here is the method:
(§1) The chemotherapeutic activity of the new penicillins was tested in vivo and in vitro. The in vitro inhibition values (MIC = minimum inhibition concentration (see Tables 1 and 2) were determined in a liquid medium in the test tube series dilution test, with readings being taken after 24 hours' incubation at 37°C. The MIC is indicated by the non-turbid test tube in the dilution series. A complete medium of the following composition was used as the nutrient medium:
(§2) The figures quoted in the Examples for the effectiveness against certain bacteria (units/ml) are minimum inhibitory concentrations in the test tube series dilution test after 24 hours' incubation.

For another assay, the system named is E. coli A 261. Format: cell-based. To be noted: E. coli A 261, 24 hours, 37°C. As for the experimental part: as §1, §2
The next assay relates to Klebsiella K 10. It counts as cell-based. The note with it: Klebsiella K 10, 24 hours, 37°C. As for the experimental part: as §1, §2
Assay [1] concerns Streptoc. faec. ATCC 9790. Format: cell-based. The note with it: Strep. faec. (Enterococcus) ATCC 9790, 24 hours, 37°C. As for the experimental part: as §1, §2
In another assay the test system is E. coli 14. It counts as cell-based. The note with it: E. coli 14, 24 hours, 37°C. As for the experimental part:
as §1, §2

Another assay deals with E. coli C 165. Format: cell-based. The note with it: E. coli C 165, 24 hours, 37°C. Here is the method: as §1, §2
In another assay the test system is E. coli 183/58. Format: cell-based. The note with it: E. coli 183/58, 24 hours, 37°C. Here is the method: as §1, §2
For the next assay, the system named is Staph. aureus 133. It counts as cell-based, Staphylococcus aureus. The note with it: Staph. aureus 133, 24 hours, 37°C. Here is the method:
as §1, §2

For a further assay, the system named is Proteus vulg. 3400. It counts as cell-based, Proteus vulgaris. To be noted: Proteus vulg. 3400, 24 hours, 37°C. Here is the method: as §1, §2
The next assay deals with Proteus vulg. 1017. Format: cell-based, Proteus vulgaris. The note with it: Proteus vulg. 1017, 24 hours, 37°C. As for the experimental part: as §1, §2
The test system of a further assay is Psdm. aerug. Bonn. It counts as cell-based, Pseudomonas aerug. The note with it: 24 hours, 37°C. Here is the method:
as §1, §2

A further assay deals with Psdm. aerug. Walter. Format: cell-based, Pseudomonas aerug. To be noted: 24 hours, 37°C. As for the experimental part:
as §1, §2

Take `CN(C(=O)NC(C(=O)N[C@@H]1C(=O)N2[C@@H]1SC(C)(C)[C@@H]2C(=O)O)c1c(Cl)cccc1Cl)C(=O)c1ccccc1` (stereo partly drawn) [Example 31, Sodium α-(3-benzoyl-3-methyl-ureido)-2,6-dichlorobenzyl-penicillin]: the MIC in the assay with Klebsiella 63 is on record as 100-500 units/ml; in the assay with E. coli A 261, over 500 units/ml; with Klebsiella K 10, 100-500 units/ml; in assay [1], over 500 units/ml; against E. coli 14 it was 20-100 units/ml; against E. coli C 165, 100-500 units/ml. Moreover, the MIC with E. coli 183/58 is reported as 20-100 units/ml; in the assay with Staph. aureus 133, 0.8-4 units/ml; in the assay on Proteus vulg. 3400 it was 100-500 units/ml; against Proteus vulg. 1017, 100-500 units/ml; with Psdm. aerug. Bonn, “approx. 500 units/ml”; against Psdm. aerug. Walter, 100-500 units/ml.
In the case of `CCOC(=O)N(C)C(=O)NC(C(=O)N[C@@H]1C(=O)N2[C@@H]1SC(C)(C)[C@@H]2C(=O)O)c1ccc(SC)cc1` (stereo partly drawn) [Example 35, Sodium α-(3-ethoxycarbonyl-3-methyl-ureido)-4-methylthiobenzylpenicillin], the MIC is on record as 20-100 units/ml in the assay on Klebsiella 63; 100-500 units/ml against E. coli A 261; 20-100 units/ml against Klebsiella K 10; 20-100 units/ml in [1]; “approx. 4 units/ml” in the assay on E. coli 14; 20-100 units/ml in the assay with E. coli C 165. In addition, the MIC is 4-20 units/ml against E. coli 183/58; under 0.8 units/ml in the assay with Staph. aureus 133; 20-100 units/ml against Proteus vulg. 3400; 20-100 units/ml with Proteus vulg. 1017; 4-20 units/ml in the assay on Psdm. aerug. Bonn; “approx. 20 units/ml” against Psdm. aerug. Walter.
As to `C=CCN(C(=O)NC(C(=O)N[C@@H]1C(=O)N2[C@@H]1SC(C)(C)[C@@H]2C(=O)O)c1c(Cl)cccc1Cl)C(=O)c1ccccc1` (stereo partly drawn) [Example 15, Sodium D,L-α-(3-benzoyl-3-allyl-ureido)-2,6-dichlorobenzylpenicillin], the MIC is given as over 500 units/ml in the assay with Klebsiella 63; over 500 units/ml with E. coli A 261; over 500 units/ml with Klebsiella K 10; over 500 units/ml in assay [1]; 20-100 units/ml against E. coli 14; 100-500 units/ml in the assay with E. coli C 165. Also, the MIC with E. coli 183/58 is 100-500 units/ml; in the assay with Staph. aureus 133, 0.8-4 units/ml; against Proteus vulg. 3400, over 500 units/ml; against Proteus vulg. 1017, over 500 units/ml; against Psdm. aerug. Bonn, over 500 units/ml; with Psdm. aerug. Walter, over 500 units/ml.
With `Cc1ccc(C(NC(=O)N(C)C(=O)c2ccccc2)C(=O)N[C@@H]2C(=O)N3[C@@H]2SC(C)(C)[C@@H]3C(=O)O)cc1` (stereo partly drawn) [Example 4, Sodium D,L-α-(3-benzoyl-3-methyl-ureido)-p-methylbenzyl-penicillin], the MIC in the assay with Klebsiella 63 is 20-100 units/ml; with E. coli A 261, 100-500 units/ml; against Klebsiella K 10, 20-100 units/ml; in assay [1], 100-500 units/ml; against E. coli 14, 0.8-4 units/ml; against E. coli C 165 it was 4-20 units/ml. Also, the MIC with E. coli 183/58 is on record as 4-20 units/ml; against Proteus vulg. 3400 it was 4-20 units/ml; with Proteus vulg. 1017 it was 4-20 units/ml; with Psdm. aerug. Bonn, 20-100 units/ml; with Psdm. aerug. Walter, 20-100 units/ml.
As for `CN(C(=O)N[C@@H](C(=O)N[C@@H]1C(=O)N2[C@@H]1SC(C)(C)[C@@H]2C(=O)O)c1ccccc1)C(=O)c1c(Cl)cccc1Cl` [Example 141, Sodium D(-)-α-(3, o,o'-dichlorobenzoyl-3-methyl-ureido)-benzyl-penicillin], the MIC is given as 12.5 units/ml against Klebsiella 63; 50 units/ml against E. coli A 261; 6.25 units/ml in the assay on Klebsiella K 10; 0.8 units/ml against E. coli 14; 3.1 units/ml with E. coli C 165; 1.6 units/ml in the assay with E. coli 183/58. The MIC against Proteus vulg. 3400 was 3.1 units/ml; against Proteus vulg. 1017, 3.1 units/ml; with Psdm. aerug. Bonn, 12.5 units/ml; against Psdm. aerug. Walter, 6.25 units/ml.
As to `CC1(C)S[C@@H]2[C@H](NC(=O)[C@H](NC(=O)NC(=O)c3ccccc3)c3ccccc3)C(=O)N2[C@H]1C(=O)O` [sodium D(-)-α-(3-benzoylureido)benzylpenicillin, reference compound], the MIC in the assay with E. coli 14 stood at 6.25 units/ml; in the assay with Proteus vulg. 3400, 50 units/ml; with Psdm. aerug. Bonn, 25 units/ml.
With `CCN(C(=O)N[C@@H](C(=O)N[C@@H]1C(=O)N2[C@@H]1SC(C)(C)[C@@H]2C(=O)O)c1ccccc1)C(=O)c1ccc(OC)c([N+](=O)[O-])c1` [Example 108, Sodium D(-)-α-(3-[3-nitro-4-methoxy-benzoyl]-3-ethyl-ureido)benzylpenicillin], the MIC against Klebsiella 63 was 100-500 units/ml; against E. coli A 261 it was over 500 units/ml; in [1] it was ~ 20 units/ml; with E. coli C 165, 4-20 units/ml; against Staph. aureus 133, under 0.8 units/ml; against Proteus vulg. 1017 it was 20-100 units/ml. For the same compound, the results for the MIC against Psdm. aerug. Bonn and in the assay with Psdm. aerug. Walter were 0.8-4 units/ml and 20-100 units/ml, respectively.
With `CC1(C)S[C@@H]2[C@H](NC(=O)C(NC(=O)N3CCNC3=O)c3ccc(Cl)cc3)C(=O)N2[C@H]1C(=O)O` (stereo partly drawn) [Example 48 A, Sodium α-[(imidazolidin-2-on-1-yl)-carbonylamino]-p-chlorobenzylpenicillin], the MIC was 50 units/ml in the assay with Klebsiella 63; 100 units/ml against Klebsiella K 10; 25 units/ml in [1] (listed as 48 A); 12,5 units/ml against E. coli C 165 (listed as 48 A); 50 units/ml with Proteus vulg. 3400 (listed as 48 A); 25 units/ml in the assay on Proteus vulg. 1017 (listed as 48 A). Also, in the assay with Psdm. aerug. Bonn (listed as 48 A), the MIC came out at 25 units/ml.
On to `CC(C)OC(=O)N(C)C(=O)N[C@@H](C(=O)N[C@@H]1C(=O)N2[C@@H]1SC(C)(C)[C@@H]2C(=O)O)c1ccccc1` [Example 97, Sodium D(-)-α-(3-i-propoxycarbonyl-3-methyl-ureido)-benzylpenicillin], for which the MIC is 50 units/ml against Klebsiella 63; 400 units/ml with Klebsiella K 10; 6.25 units/ml with E. coli 14; 6.25 units/ml against E. coli 14 (listed as (B) of Example 11); 25 units/ml with E. coli C 165; 25 units/ml against E. coli C 165 (listed as (B) of Example 11). For the same compound, the MIC turned out to be 6.25 units/ml in the assay on E. coli 183/58; 6.25 units/ml in the assay with E. coli 183/58 (listed as (B) of Example 11); 25 units/ml against Proteus vulg. 3400; 25 units/ml against Proteus vulg. 1017; 25 units/ml with Psdm. aerug. Bonn; 25 units/ml with Psdm. aerug. Bonn (listed as (B) of Example 11). The MIC in the assay with Psdm. aerug. Walter and with Psdm. aerug. Walter (listed as (B) of Example 11) was 50 units/ml in each case.
Regarding `COC(=O)N(C)C(=O)N[C@@H](C(=O)N[C@@H]1C(=O)N2[C@@H]1SC(C)(C)[C@@H]2C(=O)O)c1ccccc1` [Example 96, Sodium D(-)-α-(3-methoxycarbonyl-3-methyl-ureido)-benzylpenicillin], the MIC against Klebsiella 63 is given as 200 units/ml; in the assay on Klebsiella 63 (listed as (B) of Example 10), 200 units/ml; against Klebsiella K 10, 200 units/ml; in the assay on Klebsiella K 10 (listed as (B) of Example 10), 200 units/ml; in assay [1] it was 25 units/ml; with E. coli 14, 6.25 units/ml. For the same compound, the MIC in the assay with E. coli 14 (listed as (B) of Example 10) amounted to 6.25 units/ml; with E. coli C 165, 12.5 units/ml; against E. coli 183/58, 25 units/ml; with E. coli 183/58 (listed as (B) of Example 10) it was 25 units/ml; in the assay with Staph. aureus 133, 1.56 units/ml; in the assay on Staph. aureus 133 (listed as (B) of Example 10), 1.56 units/ml. Moreover, the MIC in the assay with Proteus vulg. 3400 is 50 units/ml; against Proteus vulg. 1017, 50 units/ml; in the assay with Psdm. aerug. Bonn, 25 units/ml; against Psdm. aerug. Bonn (listed as (B) of Example 10) it was 25 units/ml; with Psdm. aerug. Walter, 25 units/ml; with Psdm. aerug. Walter (listed as (B) of Example 10), 25 units/ml.
